Six compounds from BindingDB's records for doi:10.7270/Q2KP80J0 (The Scripps Research Institute Molecular Screening Center, 2007) can be followed below.

This experiment deals with T1, Ephrin type-B receptor 4 (Homo sapiens, UniProt P54760).
T1 sequence (P54760 whole entry): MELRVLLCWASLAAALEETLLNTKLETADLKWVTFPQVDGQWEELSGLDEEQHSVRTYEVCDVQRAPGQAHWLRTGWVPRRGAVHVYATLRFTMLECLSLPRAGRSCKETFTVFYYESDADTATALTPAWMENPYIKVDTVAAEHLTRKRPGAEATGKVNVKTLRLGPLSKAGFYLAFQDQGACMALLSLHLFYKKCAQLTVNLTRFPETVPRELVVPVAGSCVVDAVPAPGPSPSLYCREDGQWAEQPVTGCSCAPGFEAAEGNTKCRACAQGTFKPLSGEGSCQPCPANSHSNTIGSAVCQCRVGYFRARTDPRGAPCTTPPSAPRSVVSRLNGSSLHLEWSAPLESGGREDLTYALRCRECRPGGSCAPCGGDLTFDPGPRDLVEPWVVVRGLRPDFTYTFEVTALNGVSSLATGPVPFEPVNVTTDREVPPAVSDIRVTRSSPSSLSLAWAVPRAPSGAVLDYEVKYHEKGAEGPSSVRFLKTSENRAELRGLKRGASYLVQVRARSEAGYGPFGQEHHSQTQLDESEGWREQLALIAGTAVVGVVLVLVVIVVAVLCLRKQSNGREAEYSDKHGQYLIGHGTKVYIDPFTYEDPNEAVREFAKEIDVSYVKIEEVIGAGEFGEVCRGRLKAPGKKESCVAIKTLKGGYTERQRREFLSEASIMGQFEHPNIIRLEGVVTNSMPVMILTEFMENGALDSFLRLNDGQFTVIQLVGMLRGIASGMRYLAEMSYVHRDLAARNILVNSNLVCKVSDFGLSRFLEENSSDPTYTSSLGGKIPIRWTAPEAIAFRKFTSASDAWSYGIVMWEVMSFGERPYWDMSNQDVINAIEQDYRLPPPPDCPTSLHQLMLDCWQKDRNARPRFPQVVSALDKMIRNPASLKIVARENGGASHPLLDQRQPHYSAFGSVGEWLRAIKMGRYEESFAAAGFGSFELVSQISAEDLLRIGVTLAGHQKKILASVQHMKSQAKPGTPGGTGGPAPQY
As to the kind of experiment: blockers of EphB4 ligand binding – biochemical, TNYL-RAW peptide displacement, dose response (AID 835).
Usually IC50 stands for the concentration needed to halve the response being measured. A lower IC50 goes with inhibition by little substance. In the case of `COC(=O)c1ccc(NC(=O)CN2CCN(c3cccc(Cl)c3)CC2)cc1` [4-[[2-[4-(3-chlorophenyl)-1-piperazinyl]-1-oxoethyl]amino]benzoic acid methyl ester], the half-maximal inhibitory concentration (IC50) is over 79.4 µM.

Take `CCCn1c(NC(=O)C2COc3ccccc3O2)nc2ccccc21` (stereo unspecified) [MLS000053418]: the IC50 is over 79.4 µM.

`CN(C)c1nccc(Nc2ccccc2)c1C#N` [2-(dimethylamino)-4-phenylazanyl-pyridine-3-carbonitrile] had an IC50 of over 79.4 µM.

Turning to `Cc1cc(=O)oc(C)c1C(=O)OCC(=O)c1ccc(Cl)cc1` [2,4-Dimethyl-6-oxo-6H-pyran-3-carboxylic acid 2-(4-chloro-phenyl)-2-oxo-ethyl ester], the IC50 was over 79.4 µM.

In turn, `O=C(Nc1ccccc1C(=O)N1CCOCC1)c1ccncc1` [MLS000109827] gave an IC50 of over 79.4 µM.

As for `Cc1cc(N2CCN(c3ccccn3)CC2)n2cc(-c3ccccc3)nc2n1` [7-methyl-2-phenyl-5-(4-pyridin-2-ylpiperazin-1-yl)imidazo[1,2-a]pyrimidine], the IC50 is over 79.4 µM.
